Results reported in patent EP0720987A1, “Acylated pseudopeptides containing trifluoromethyl substituted 2-azabicyclooctane” (BAYER AG, priority 1995, dated 1996).

Key:
HIV = HIV infection in cell culture (PBL), inhibition of virus-induced syncytia formation; assay type: cell-based; conditions: Human immunodeficiency virus 1, Lymphocyte, 72 h; HIV-infected normal human blood lymphocytes (PBL's); 50% suppression of virus-induced syncytia, read microscopically day 3 to 6 after infection
Method: Außerdem zeigten die erfindungsgemäßen Verbindungen Wirkung in Lentivirus infizierten Zellkulturen. Dies konnte am Beispiel des HIV-Virus gezeigt werden.
HIV-Infektion in Zellkultur
Der HIV-Test wurde mit geringen Modifikationen nach der Methode von Pauwels et al. [vgl. Journal of Virological Methods 20, (1988), 309-321] durchgeführt.
Normale menschliche Blutlymphozyten (PBL's) wurden über Ficoll-Hypaque angereichert und im RPMI 1640, 20% fötales Kälberserum mit Phythaemagglutinin (90 µg/ml) und Interleukin-2 (40 U/ml) stimuliert. Zur Infektion mit dem infektiösen HIV wurden PBL's pelletiert und das Zellpellet wurde anschließend in 1 ml HIV-Virusadsorptionslösung suspendiert und 1 Stunde bei 37°C inkubiert.
Die Virusadsorptionslösung wurde zentrifugiert und das infizierte Zellpellet in Wachstumsmedium aufgenommen, so daß 1 x 10^5 Zellen pro ml eingestellt waren. Die derart infizierten Zellen wurden zu 1 x 10^4 Zellen/Napf in die Näpfe von 96er Mikrotiterplatten pipettiert.
Die erste vertikale Reihe der Mikrotiterplatte enthielt nur Wachstumsmedium und Zellen, die nicht infiziert, aber ansonsten genauso wie oben beschrieben, behandelt worden waren (Zellkontrolle). Die zweite vertikale Reihe der Mikrotiterplatte erhielt nur HIV-infizierte Zellen (Viruskontrolle) in Wachstumsmedium. Die übrigen Näpfe enthielten die erfindungsgemäßen Verbindungen in unterschiedlichen Konzentrationen, ausgehend von den Näpfen der 3. vertikalen Reihe der Mikrotiterplatte, von der die Prüfsubstanzen in 2er Schritten 2^10fach verdünnt wurden.
Die Testansätze wurden so lange bei 37°C inkubiert, bis in der unbehandelten Viruskontrolle die für das HIV typische Syncytienbildung auftrat (zwischen Tag 3 und 6 nach Infektion), die dann mikroskopisch ausgewertet wurde. In der unbehandelten Viruskontrolle resultierten unter diesen Testbedingungen etwa 20 Syncytien, währen die unbehandelte Zellkontrolle keine Syncytien aufwies. […]

HIV-1-Protease = molecular target: T1, HIV-1-Protease (Human immunodeficiency virus type 1 group M subtype B, UniProt P04585); experiment: HIV-specific protease enzyme test (cleavage of synthetic peptide by purified HIV protease, RP-HPLC analysis); assay type: biochemical; conditions: synthetic peptide substrate imitating Gag precursor cleavage site; for IC50: read-out: HIV-1-Protease-Inhibition IC50
T1 construct: Gereinigte HIV-Protease wurde mit synthetischem Peptid
Source text: Es wurde überraschend gefunden, daß die Verbindungen der allgemeinen Formel (I) eine außerordentlich starke Wirkung gegen Retroviren besitzen. Dies wird mit einem HIV-spezifischen Protease-Enzymtest belegt.
Die Ergebnisse der unten aufgeführten Beispiele wurden nach dem in den folgenden Literaturangaben [vgl. Hansen, J., Billich, S., Schulze, T., Sukrow, S. and Mölling, K. (1988), EMBO Journal, Vol, 7, No. 6, pp. 1785 - 1791] beschriebenen HIV-Testsystem ermittelt: Gereinigte HIV-Protease wurde mit synthetischem Peptid, das eine Schnittstelle im Gag-Precursor-Protein imitiert und eine in vivo-Spaltstelle der HIV-Protease darstellt, inkubiert. Die entstandenen Spaltprodukte des synthetischen Peptids wurden über Reverse Phase High Performance Liquid Chromatography (RP-HPLC) analysiert. Die angegebenen IC50Werte beziehen sich auf die Substanzkonzentration, die unter den oben aufgeführten Testbedingungen eine 50%ige Hemmung der Protease-Aktivität bewirkt.

| Compound | IC50 (HIV) | IC50 (HIV-1-Protease) | HIV-1-Protease-Inhibition IC95 (HIV-1-Protease) |
| --- | --- | --- | --- |
| CCOC(=O)CCC(=O)O[C@H](CN1[C@H](C(F)(F)F)C[C@@H]2CCC[C@@H]21)[C@H](Cc1ccccc1)NC(=O)[C@H](CC(N)=O)NC(=O)c1ccc2ccccc2n1 [Beispiel 1, (2R,3S)-3-(Chinolin-2-yl-L-asparaginyl)-amino-1-[(S,S,S)-3-trifluormethyl-2-azabicylco[3.3.0]octan-2-yl}-2-(3-ethoxycarbonyl)propionyl-4-phenylbutan] | 108 nM | 320000 nM |  |
| CC(=O)O[C@H](CN1[C@H](C(F)(F)F)C[C@@H]2CCC[C@@H]21)[C@H](Cc1ccccc1)NC(=O)[C@H](CC(N)=O)NC(=O)c1ccc2ccccc2n1 [Beispiel 2] | 612 nM | 1100 nM | 3,3 x 10^-5 Mol/l |
| CC(=O)O[C@H](CN1[C@H](C(F)(F)F)C[C@@H]2CCC[C@@H]21)[C@H](Cc1ccccc1)NC(=O)[C@H](CC(N)=O)NC(=O)c1cnc2cc(C)c(C)cc2n1 [Beispiel 3] | 120 nM | 1.5 nM | 2,5 x 10^-8 Mol/l |
